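Method: 48-hour compound exposure of cells in 96-well plates, five concentrations, linear interpolation of endpoints. GI50 is the concentration that inhibits growth by half.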 Active and inactive are the calls of the source. Cut-off read from the data, not from the text of the source: active = GI50 up to about 1.1 µM and inactive = higher.
Experiments:
Test in all cases: inhibition of tumour cell growth, NCI panel, 48 h
[1] = tested on: 786-0
[2] = tested on: A549
[3] = tested on: CAKI-1
[4] = tested on: COLO 205
[5] = tested on: HOP-92
[6] = tested on: HT-29
[7] = tested on: IGROV-1
[8] = tested on: M14
[9] = tested on: MCF7
[10] = tested on: MDA-MB-435
[11] = tested on: MOLT-4
[12] = tested on: NCI-H23
[13] = tested on: OVCAR-3
[14] = tested on: OVCAR-4
[15] = tested on: SK-MEL-28
[16] = tested on: SNB-19
[17] = tested on: SW-620
[18] = tested on: T47D
[19] = tested on: TK-10
[20] = tested on: UACC-257

Measured: GI50

O=C(O)[C@@H]1CCC(=O)N1C(c1ccc2c(c1)OCO2)c1ccc2c(c1)OCO2
inactive: [1] > 100 µM | [2] > 100 µM | [3] > 100 µM | [4] > 100 µM | [5] > 100 µM | [6] > 100 µM | [7] > 100 µM | [8] > 100 µM | [9] > 100 µM | [10] > 100 µM | [11] > 100 µM | [12] > 100 µM | [13] > 100 µM | [14] 35.2 µM | [15] > 100 µM | [16] > 100 µM | [17] > 100 µM | [18] > 100 µM | [19] > 100 µM | [20] > 100 µM

C=C[C@@]1(C)CC2(C=C(CO)C(O)O2)Oc2c1c(=O)oc1cccc(C)c21 (stereo not given in full)
inactive: [1] 1.98 µM | [2] 31 µM | [3] 4.61 µM | [4] 9.08 µM | [5] 20.2 µM | [6] 4.69 µM | [7] 13.8 µM | [8] 3.52 µM | [9] 6.62 µM | [10] 3.57 µM | [11] 2.1 µM | [12] 7.45 µM | [13] 3.16 µM | [14] 3.78 µM | [15] 7.74 µM | [16] 16.7 µM | [17] 1.55 µM | [18] 10.7 µM | [19] 17.6 µM | [20] 14.7 µM

O=C1N=C(c2ccccc2)O/C1=C\c1ccccc1
inactive: [1] > 100 µM | [2] > 100 µM | [3] > 100 µM | [4] > 100 µM | [5] > 100 µM | [6] > 100 µM | [7] > 100 µM | [8] > 100 µM | [9] > 100 µM | [10] > 100 µM | [11] > 100 µM | [12] > 100 µM | [13] > 100 µM | [14] > 100 µM | [15] > 100 µM | [16] > 100 µM | [17] > 100 µM | [18] > 100 µM | [19] > 100 µM | [20] > 100 µM

c1ccc2c(c1)nc1n2CSCC1
inactive: [1] > 100 µM | [2] > 100 µM | [3] > 100 µM | [4] > 100 µM | [5] > 100 µM | [6] > 100 µM | [7] > 100 µM | [8] > 100 µM | [9] > 100 µM | [10] > 100 µM | [11] > 100 µM | [12] > 100 µM | [13] > 100 µM | [14] > 100 µM | [15] > 100 µM | [16] > 100 µM | [17] > 100 µM | [18] > 100 µM | [19] > 100 µM | [20] > 100 µM

CC(=O)/C(=C/n1c(=S)sc2ccccc21)C(=O)Nc1ccccc1C
inactive: [1] > 100 µM | [2] > 100 µM | [3] 48 µM | [4] > 100 µM | [5] 41.1 µM | [6] > 100 µM | [7] 59.8 µM | [8] > 100 µM | [9] > 100 µM | [10] > 100 µM | [11] > 100 µM | [12] > 100 µM | [13] 59.4 µM | [14] > 100 µM | [15] > 100 µM | [16] > 100 µM | [17] > 100 µM | [18] 40.9 µM | [19] > 100 µM | [20] > 100 µM

CCOC(=O)C(Cc1c2ccccc2cc2ccccc12)(NC(C)=O)C(=O)OCC
inactive: [1] 76.4 µM | [2] > 72.8 µM | [3] 20 µM | [4] > 53.2 µM | [5] 14.2 µM | [6] > 86.9 µM | [7] > 45 µM | [8] > 75.9 µM | [9] 2.99 µM | [10] > 72.4 µM | [11] 25.8 µM | [12] > 100 µM | [13] > 64.7 µM | [14] 40.4 µM | [15] > 100 µM | [16] > 78.5 µM | [17] > 79.8 µM | [18] 35.8 µM | [19] > 100 µM | [20] > 100 µM

Cc1nn2c(=O)c([N+](=O)[O-])c(/C=C/c3ccc(F)cc3)nc2s1
inactive: [1] 10.9 µM | [2] 9.06 µM | [3] 8.67 µM | [4] 12.1 µM | [5] 15.5 µM | [6] 6.52 µM | [7] 10.5 µM | [8] 11.3 µM | [9] 3.4 µM | [10] 4.33 µM | [11] 10.1 µM | [12] 15.2 µM | [13] 4.28 µM | [14] 11 µM | [15] 12.9 µM | [16] 10.8 µM | [17] 11.5 µM | [18] 4.03 µM | [19] 14.1 µM | [20] 10.9 µM

C#C/C=C\CCCCCCCCCCCCCC/C=C\CCCCC#CC(O)C#CCCCC/C=C\CCCCCC/C=C/C(O)C#C (stereo not given)
inactive: [1] 11.8 µM | [2] 12.1 µM | [3] 7.69 µM | [4] 14.1 µM | [5] 16.4 µM | [6] 18.3 µM | [7] 13.6 µM | [8] 12.9 µM | [9] 5.62 µM | [10] 4.58 µM | [11] 10.1 µM | [12] 9.64 µM | [13] 32.2 µM | [14] 6.38 µM | [15] 21 µM | [16] 25.1 µM | [17] 7.5 µM | [18] 7.21 µM | [19] 21.6 µM | [20] 27 µM

COC(OC)[C@@H]1OC[C@H](n2ccc(=O)[nH]c2=O)[C@H]1O
inactive: [1] > 100 µM | [2] > 100 µM | [3] > 100 µM | [4] > 100 µM | [5] > 100 µM | [6] > 100 µM | [7] > 100 µM | [8] > 100 µM | [9] > 100 µM | [10] > 100 µM | [11] > 100 µM | [12] > 100 µM | [13] > 100 µM | [14] > 100 µM | [15] > 100 µM | [16] 67.3 µM | [17] > 100 µM | [18] > 100 µM | [19] > 100 µM | [20] > 100 µM

O=C1C=C/C(=N/c2cccc3c(/N=C4/C=CC(=O)O4)cccc23)O1
inactive: [1] 19.4 µM | [2] > 100 µM | [3] 18.9 µM | [4] 20.2 µM | [5] 42.7 µM | [6] 41.8 µM | [7] 58.5 µM | [8] 29.2 µM | [9] 33.3 µM | [10] 44.5 µM | [11] 3.72 µM | [12] 50.4 µM | [13] 51.6 µM | [14] 39.4 µM | [15] 28.3 µM | [16] > 100 µM | [17] 16.4 µM | [18] 33.7 µM | [19] 17.7 µM | [20] 22.3 µM

CCCc1cn2c(/C=N/N=C(N)N)c(-c3c(OC)ccc(OC)c3[N+](=O)[O-])nc2s1
inactive: [1] 9.89 µM | [2] 19.4 µM | [3] 5.57 µM | [4] 2.16 µM | [5] 12.5 µM | [6] 4.06 µM | [7] 9.89 µM | [8] 7.08 µM | [9] 2.81 µM | [10] 5.42 µM | [11] 1.94 µM | [12] 10.9 µM | [13] 4.69 µM | [14] 20.2 µM | [15] 4.84 µM | [16] 18.4 µM | [17] 7.78 µM | [18] 3.7 µM | [19] 16.8 µM | [20] 7.08 µM

Cc1ccc2c(n1)NC(=O)C(Cc1ccccc1)(N=[N+]=[N-])C2=O (stereo not given)
inactive: [1] > 100 µM | [2] > 100 µM | [3] > 100 µM | [4] > 100 µM | [5] > 100 µM | [6] > 100 µM | [7] > 100 µM | [8] > 100 µM | [9] > 100 µM | [10] > 100 µM | [11] > 100 µM | [12] > 100 µM | [13] > 100 µM | [14] > 100 µM | [15] > 100 µM | [16] > 100 µM | [17] > 100 µM | [18] 67 µM | [19] > 100 µM | [20] > 100 µM

Clc1cc(Cl)nc(Nc2ccc3c(c2)CCC3)n1
inactive: [1] 39.1 µM | [2] 32.6 µM | [3] 28.2 µM | [4] 24 µM | [5] 32.8 µM | [6] 22 µM | [7] 16 µM | [8] 42.9 µM | [9] 20.5 µM | [10] 58.5 µM | [11] 13.8 µM | [12] 39.6 µM | [13] 32 µM | [14] 61.2 µM | [15] 37.7 µM | [16] 89.5 µM | [17] 46.6 µM | [18] 69.3 µM | [19] 18.1 µM | [20] 42 µM

CC1CC[C@]2(C(=O)O)CCC3(C)C(=C2[C@H]1C)C=CC1[C@@]2(C)CC[C@H](O)C(C)(C)C2CC[C@]13C (stereo not given in full)
inactive: [1] 29.9 µM | [2] 11.8 µM | [3] 22.8 µM | [4] 44.4 µM | [5] 18.7 µM | [6] 31.1 µM | [7] 27.9 µM | [8] 44.9 µM | [9] 30 µM | [10] 63.1 µM | [11] 23.7 µM | [12] 24.9 µM | [13] 17.5 µM | [14] 30.1 µM | [15] 28.3 µM | [16] 30.5 µM | [17] 45.9 µM | [18] 19.1 µM | [19] 33.5 µM | [20] 45 µM
